Experimental data reported in the supplement of paper PMC10307832.

Legend:
Experiment in all cases: relative viability (nuclei count vs DMSO), 5 days (fraction); higher = more cells survive
[1] = compound: C1CNCCC1C2=CC(=NN2)C3=CC=NC=C3 + C[C@]1(O)C[C@@H](c2nc(-c3ccc4ccc(-c5ccccc5)nc4c3)c3c(N)nccn32)C1 [Linsitinib] (partner 1 µM)
In short: (§1)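 Lung cancer cell lines were seeded in 1536-well plates and dosed by pin tool the next day, with either a single drug or a fixed anchor-drug dose combined with five library-drug doses (not always all listed) spaced in √10 steps. Five days later, one step fixed the cells and stained their nuclei (final 0.05% Triton X-100, 1% formaldehyde, 1 ug/ml Hoechst), and nuclei were counted on 4× images. Relative viability is the nuclei count in treated wells divided by the count in vehicle wells, and each value is the median of duplicate plates.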

[2] = compound: C1CNCCC1C2=CC(=NN2)C3=CC=NC=C3 + N=C(N)NC(=N)NCCc1ccccc1 [Phenformin] (partner 250 µM)
In short: as §1

Tanzisertib + Dasatinib = compound: O[C@H]1CC[C@H](Nc2ncc3nc(Nc4c(F)cc(F)cc4F)n([C@H]4CCOC4)c3n2)CC1 [Tanzisertib] + Cc1nc(Nc2ncc(C(=O)Nc3c(C)cccc3Cl)s2)cc(N2CCN(CCO)CC2)n1 [Dasatinib] (partner 0.075 µM)
In short: as §1

[3] = compound: C1CNCCC1C2=CC(=NN2)C3=CC=NC=C3 + CC(C)C[C@H](NC(=O)[C@H](Cc1ccccc1)NC(=O)c1cnccn1)B(O)O [Bortezomib] (partner 0.002 µM)
In short: as §1

NCI-H1944
relative viability ([1]; first compound 0.08 µM): 1.14
relative viability ([1]; first compound 0.8 µM): 1.08
relative viability ([1]; first compound 2.53 µM): 1.25
relative viability ([1]; first compound 8 µM): 1.1
relative viability ([2]; first compound 0.08 µM): 0.18
relative viability ([2]; first compound 0.8 µM): 0.185
relative viability ([2]; first compound 2.53 µM): 0.209
relative viability ([2]; first compound 8 µM): 0.173
relative viability (Tanzisertib + Dasatinib; first compound 0.08 µM): 0.254
relative viability (Tanzisertib + Dasatinib; first compound 0.253 µM): 0.23
relative viability (Tanzisertib + Dasatinib; first compound 0.8 µM): 0.234
relative viability (Tanzisertib + Dasatinib; first compound 2.53 µM): 0.196
relative viability (Tanzisertib + Dasatinib; first compound 8 µM): 0.22

NCI-H2342
relative viability ([2]; first compound 0.08 µM): 0.512
relative viability ([2]; first compound 0.8 µM): 0.501
relative viability ([2]; first compound 2.53 µM): 0.688
relative viability ([2]; first compound 8 µM): 0.631
relative viability (Tanzisertib + Dasatinib; first compound 0.08 µM): 0.32
relative viability (Tanzisertib + Dasatinib; first compound 0.253 µM): 0.311
relative viability (Tanzisertib + Dasatinib; first compound 0.8 µM): 0.308
relative viability (Tanzisertib + Dasatinib; first compound 2.53 µM): 0.283
relative viability (Tanzisertib + Dasatinib; first compound 8 µM): 0.32

NCI-H358
relative viability ([1]; first compound 0.08 µM): 0.595
relative viability ([1]; first compound 0.8 µM): 0.792
relative viability ([1]; first compound 2.53 µM): 0.688
relative viability ([1]; first compound 8 µM): 0.765
relative viability ([2]; first compound 0.08 µM): 0.199
relative viability ([2]; first compound 0.8 µM): 0.361
relative viability ([2]; first compound 2.53 µM): 0.339
relative viability ([2]; first compound 8 µM): 0.28
relative viability (Tanzisertib + Dasatinib; first compound 0.08 µM): 0.185
relative viability (Tanzisertib + Dasatinib; first compound 0.253 µM): 0.159
relative viability (Tanzisertib + Dasatinib; first compound 0.8 µM): 0.164
relative viability (Tanzisertib + Dasatinib; first compound 2.53 µM): 0.151
relative viability (Tanzisertib + Dasatinib; first compound 8 µM): 0.131

NCI-H522
relative viability ([2]; first compound 0.08 µM): 0.552
relative viability ([2]; first compound 0.8 µM): 0.657
relative viability ([2]; first compound 2.53 µM): 0.771
relative viability ([2]; first compound 8 µM): 0.689
relative viability (Tanzisertib + Dasatinib; first compound 0.08 µM): 0.937
relative viability (Tanzisertib + Dasatinib; first compound 0.253 µM): 0.974
relative viability (Tanzisertib + Dasatinib; first compound 0.8 µM): 0.845
relative viability (Tanzisertib + Dasatinib; first compound 2.53 µM): 0.855
relative viability (Tanzisertib + Dasatinib; first compound 8 µM): 0.884

NCI-H1793
relative viability ([1]; first compound 0.08 µM): 0.67
relative viability ([1]; first compound 0.8 µM): 0.669
relative viability ([1]; first compound 2.53 µM): 0.922
relative viability ([1]; first compound 8 µM): 0.876
relative viability ([2]; first compound 0.08 µM): 0.307
relative viability ([2]; first compound 0.8 µM): 0.162
relative viability ([2]; first compound 2.53 µM): 0.441
relative viability ([2]; first compound 8 µM): 0.426
relative viability (Tanzisertib + Dasatinib; first compound 0.08 µM): 0.417
relative viability (Tanzisertib + Dasatinib; first compound 0.253 µM): 0.367
relative viability (Tanzisertib + Dasatinib; first compound 0.8 µM): 0.405
relative viability (Tanzisertib + Dasatinib; first compound 2.53 µM): 0.388
relative viability (Tanzisertib + Dasatinib; first compound 8 µM): 0.423

SW 900
relative viability ([2]; first compound 0.08 µM): 0.64
relative viability ([2]; first compound 0.8 µM): 0.548
relative viability ([2]; first compound 2.53 µM): 0.738
relative viability ([2]; first compound 8 µM): 0.628
relative viability (Tanzisertib + Dasatinib; first compound 0.08 µM): 0.692
relative viability (Tanzisertib + Dasatinib; first compound 0.253 µM): 0.574
relative viability (Tanzisertib + Dasatinib; first compound 0.8 µM): 0.585
relative viability (Tanzisertib + Dasatinib; first compound 2.53 µM): 0.621
relative viability (Tanzisertib + Dasatinib; first compound 8 µM): 0.496

SK-MES-1
relative viability ([1]; first compound 0.08 µM): 1.07
relative viability ([1]; first compound 0.8 µM): 1.1
relative viability ([1]; first compound 2.53 µM): 1.15
relative viability ([1]; first compound 8 µM): 0.953
relative viability ([2]; first compound 0.08 µM): 0.635
relative viability ([2]; first compound 0.8 µM): 0.68
relative viability ([2]; first compound 2.53 µM): 0.634
relative viability ([2]; first compound 8 µM): 0.603
relative viability (Tanzisertib + Dasatinib; first compound 0.08 µM): 0.39
relative viability (Tanzisertib + Dasatinib; first compound 0.253 µM): 0.35
relative viability (Tanzisertib + Dasatinib; first compound 0.8 µM): 0.337
relative viability (Tanzisertib + Dasatinib; first compound 2.53 µM): 0.32
relative viability (Tanzisertib + Dasatinib; first compound 8 µM): 0.212

EBC-1
relative viability ([3]; first compound 0.08 µM): 0.694
relative viability ([3]; first compound 0.8 µM): 0.575
relative viability ([3]; first compound 2.53 µM): 0.591
relative viability ([3]; first compound 8 µM): 0.55
relative viability ([1]; first compound 0.08 µM): 0.899
relative viability ([1]; first compound 0.8 µM): 0.938
relative viability ([1]; first compound 2.53 µM): 1.09
relative viability ([1]; first compound 8 µM): 0.949

LK-2
relative viability ([1]; first compound 0.8 µM): 0.751
relative viability ([1]; first compound 2.53 µM): 0.427
relative viability ([1]; first compound 8 µM): 0.519
relative viability ([2]; first compound 0.08 µM): 0.354
relative viability ([2]; first compound 0.8 µM): 0.377
relative viability ([2]; first compound 2.53 µM): 0.547
relative viability ([2]; first compound 8 µM): 0.494
relative viability (Tanzisertib + Dasatinib; first compound 0.08 µM): 0.281
relative viability (Tanzisertib + Dasatinib; first compound 0.253 µM): 0.287
relative viability (Tanzisertib + Dasatinib; first compound 0.8 µM): 0.318
relative viability (Tanzisertib + Dasatinib; first compound 2.53 µM): 0.28
relative viability (Tanzisertib + Dasatinib; first compound 8 µM): 0.207

NCI-H1650
relative viability ([3]; first compound 0.08 µM): 0.212
relative viability ([3]; first compound 0.8 µM): 0.184
relative viability ([3]; first compound 2.53 µM): 0.214
relative viability ([3]; first compound 8 µM): 0.204
relative viability ([2]; first compound 0.08 µM): 0.287
relative viability ([2]; first compound 0.8 µM): 0.442
relative viability ([2]; first compound 2.53 µM): 0.428
relative viability ([2]; first compound 8 µM): 0.356
relative viability (Tanzisertib + Dasatinib; first compound 0.08 µM): 0.319
relative viability (Tanzisertib + Dasatinib; first compound 0.253 µM): 0.305
relative viability (Tanzisertib + Dasatinib; first compound 0.8 µM): 0.273
relative viability (Tanzisertib + Dasatinib; first compound 2.53 µM): 0.283
relative viability (Tanzisertib + Dasatinib; first compound 8 µM): 0.28

IA-LM
relative viability ([3]; first compound 0.08 µM): 0.911
relative viability ([3]; first compound 0.8 µM): 0.934
relative viability ([3]; first compound 2.53 µM): 1.08
relative viability ([3]; first compound 8 µM): 0.864
relative viability ([1]; first compound 0.08 µM): 0.717
relative viability ([1]; first compound 0.8 µM): 0.893
relative viability ([1]; first compound 2.53 µM): 0.958
relative viability ([1]; first compound 8 µM): 0.621

NCI-H1703
relative viability ([3]; first compound 0.08 µM): 0.502
relative viability ([3]; first compound 0.8 µM): 0.334
relative viability ([3]; first compound 2.53 µM): 0.351
relative viability ([3]; first compound 8 µM): 0.366
relative viability ([1]; first compound 0.08 µM): 0.79
relative viability ([1]; first compound 0.8 µM): 0.858
relative viability ([1]; first compound 2.53 µM): 0.928
relative viability ([1]; first compound 8 µM): 0.852

NCI-H1395
relative viability ([1]; first compound 0.08 µM): 1.02
relative viability ([1]; first compound 0.8 µM): 0.886
relative viability ([1]; first compound 2.53 µM): 1.24
relative viability ([1]; first compound 8 µM): 0.977
relative viability ([2]; first compound 0.08 µM): 0.419
relative viability ([2]; first compound 0.8 µM): 0.342
relative viability ([2]; first compound 2.53 µM): 0.419
relative viability ([2]; first compound 8 µM): 0.497
relative viability (Tanzisertib + Dasatinib; first compound 0.08 µM): 0.439
relative viability (Tanzisertib + Dasatinib; first compound 0.253 µM): 0.428
relative viability (Tanzisertib + Dasatinib; first compound 0.8 µM): 0.406
relative viability (Tanzisertib + Dasatinib; first compound 2.53 µM): 0.437
relative viability (Tanzisertib + Dasatinib; first compound 8 µM): 0.375
